Values of other authors in US20070196465A1, “Treatment with dihydropyridine calcium channel blockers and omega-3 fatty acids and a combination product thereof” (priority 2005, published 2007).

Tests used:
[1] = system: L-type Ca^2+ channel; details: dihydropyridine alone
[2] = system: heart; details: Finkel et al. 1992
[3] = system: cells; details: dihydropyridine alone

| Compound | effect on peak L-type Ca2+ channel current, cytosolic Ca2+ and cell contraction [1] | inotropic effect [2] | effect on calcium influx / cytosolic free calcium and cell contraction [3] |
| --- | --- | --- | --- |
| COC(=O)C1=C(C)NC(C)=C([N+](=O)[O-])C1c1ccccc1C(F)(F)F (stereo not shown) [Bay K 8644] | significantly increases peak L-type Ca^2+ channel current, cytosolic Ca^2+, and cell contraction | concentration-dependent positive inotrope | increases in calcium influx and the contracture of cells |
| CCCCC/C=C\C/C=C\C/C=C\C/C=C\CCCC(=O)O [arachidonic acid] |  | concentration-dependent negative inotropes |  |
